Data as given in the NIST ThermoML archive (doi:10.1007/s10765-006-0033-6).

Assay: compressibility factor (dimensionless); xn = mol fraction of the nth substance listed
Conditions: Gas, Other PVT measurement

[N-]=[N+]=O [nitrous oxide] + FCF
Conditions	compressibility factor
343.77 K, 195.1 kPa, x1 = 0.4666	0.989
343.77 K, 207.5 kPa, x1 = 0.2266	0.9867
343.77 K, 226.8 kPa, x1 = 0.7567	0.9899
343.77 K, 290.7 kPa, x1 = 0.4666	0.985
343.77 K, 308.8 kPa, x1 = 0.2266	0.9814
343.77 K, 338.1 kPa, x1 = 0.7567	0.9863
343.77 K, 432.2 kPa, x1 = 0.4666	0.9788
343.77 K, 458 kPa, x1 = 0.2266	0.973
343.77 K, 502.9 kPa, x1 = 0.7567	0.9804
343.77 K, 640.2 kPa, x1 = 0.4666	0.9692
343.77 K, 676.2 kPa, x1 = 0.2266	0.9601
343.77 K, 745.4 kPa, x1 = 0.7567	0.9714
343.77 K, 943.3 kPa, x1 = 0.4666	0.9546
343.77 K, 991.2 kPa, x1 = 0.2266	0.9407
343.77 K, 1099.4 kPa, x1 = 0.7567	0.9577
343.77 K, 1379.1 kPa, x1 = 0.4666	0.9328
343.77 K, 1438.1 kPa, x1 = 0.2266	0.9123
343.77 K, 1609.7 kPa, x1 = 0.7567	0.9372
343.77 K, 1992.6 kPa, x1 = 0.4666	0.9008
343.77 K, 2053.8 kPa, x1 = 0.2266	0.8708
343.77 K, 2331.4 kPa, x1 = 0.7567	0.9073
343.77 K, 2828.1 kPa, x1 = 0.4666	0.8546
343.77 K, 2865.7 kPa, x1 = 0.2266	0.8122
343.77 K, 3321.8 kPa, x1 = 0.7567	0.8641
343.77 K, 3911.6 kPa, x1 = 0.4666	0.7901
343.77 K, 4620.1 kPa, x1 = 0.7567	0.8033
343.78 K, 138.3 kPa, x1 = 0.3594	0.9911
343.78 K, 187.9 kPa, x1 = 0.5908	0.9906
343.78 K, 206.4 kPa, x1 = 0.3594	0.9884
343.78 K, 280.1 kPa, x1 = 0.5908	0.9872
343.78 K, 307.3 kPa, x1 = 0.3594	0.9836
343.78 K, 416.8 kPa, x1 = 0.5908	0.9817
343.78 K, 456.2 kPa, x1 = 0.3594	0.9762
343.78 K, 618.2 kPa, x1 = 0.5908	0.9733
343.78 K, 674.7 kPa, x1 = 0.3594	0.9649
343.78 K, 912.7 kPa, x1 = 0.5908	0.9605
343.78 K, 991.4 kPa, x1 = 0.3594	0.9477
343.78 K, 1338.5 kPa, x1 = 0.5908	0.9415
343.78 K, 1443.8 kPa, x1 = 0.3594	0.9225
343.78 K, 1942.8 kPa, x1 = 0.5908	0.9134
343.78 K, 2073.7 kPa, x1 = 0.3594	0.8857
343.78 K, 2776.8 kPa, x1 = 0.5908	0.8726
343.78 K, 2917.9 kPa, x1 = 0.3594	0.833
343.78 K, 3879.6 kPa, x1 = 0.5908	0.8149
364.35 K, 199.4 kPa, x1 = 0.5606	0.9913
364.35 K, 297.5 kPa, x1 = 0.5606	0.9887
364.35 K, 443 kPa, x1 = 0.5606	0.9839
364.35 K, 657.8 kPa, x1 = 0.5606	0.9766
364.35 K, 972.8 kPa, x1 = 0.5606	0.9653
364.35 K, 1430 kPa, x1 = 0.5606	0.9485
364.35 K, 2083.5 kPa, x1 = 0.5606	0.9237
364.35 K, 2996.2 kPa, x1 = 0.5606	0.8879
364.35 K, 4225.6 kPa, x1 = 0.5606	0.837
364.36 K, 114.2 kPa, x1 = 0.2563	0.9933
364.36 K, 134.6 kPa, x1 = 0.33	0.9913
364.36 K, 170.5 kPa, x1 = 0.2563	0.9913
364.36 K, 197 kPa, x1 = 0.4559	0.9909
364.36 K, 200.9 kPa, x1 = 0.33	0.9892
364.36 K, 250.5 kPa, x1 = 0.7632	0.9908
364.36 K, 254.2 kPa, x1 = 0.2563	0.9878
364.36 K, 294 kPa, x1 = 0.4559	0.9885
364.36 K, 299.7 kPa, x1 = 0.33	0.9864
364.36 K, 373.5 kPa, x1 = 0.7632	0.9875
364.36 K, 378.2 kPa, x1 = 0.2563	0.9825
364.36 K, 437.3 kPa, x1 = 0.4559	0.9828
364.36 K, 445.6 kPa, x1 = 0.33	0.9802
364.36 K, 556.1 kPa, x1 = 0.7632	0.9827
364.36 K, 561.2 kPa, x1 = 0.2563	0.9743
364.36 K, 649 kPa, x1 = 0.4559	0.9748
364.36 K, 660.6 kPa, x1 = 0.33	0.9712
364.36 K, 824.6 kPa, x1 = 0.7632	0.974
364.36 K, 828.8 kPa, x1 = 0.2563	0.9619
364.36 K, 959 kPa, x1 = 0.4559	0.9628
364.36 K, 974.3 kPa, x1 = 0.33	0.9575
364.36 K, 1216 kPa, x1 = 0.2563	0.9432
364.36 K, 1218.7 kPa, x1 = 0.7632	0.9621
364.36 K, 1408 kPa, x1 = 0.4559	0.9448
364.36 K, 1425.9 kPa, x1 = 0.33	0.9367
364.36 K, 1766.2 kPa, x1 = 0.2563	0.9157
364.36 K, 1788.6 kPa, x1 = 0.7632	0.9438
364.36 K, 2047.8 kPa, x1 = 0.4559	0.9185
364.36 K, 2064.5 kPa, x1 = 0.33	0.9064
364.36 K, 2528.1 kPa, x1 = 0.2563	0.8762
364.36 K, 2598.5 kPa, x1 = 0.7632	0.9166
364.36 K, 2935.9 kPa, x1 = 0.4559	0.8802
364.36 K, 2942.6 kPa, x1 = 0.33	0.8636
364.36 K, 3725.1 kPa, x1 = 0.7632	0.8782
364.36 K, 4122.8 kPa, x1 = 0.4559	0.8262
364.36 K, 5229 kPa, x1 = 0.7632	0.824
